According to PMC7419010 (PLoS Pathogens, 2020):

Legend:
[1] = test system: hybrid Locusta migratoria/Rattus norvegicus nAChR; design: method as in earlier work; details: hybrid receptor in Xenopus oocytes; ref 25 (Bao et al.); cited from earlier work
[2] = test system: six nAChR subunits (α1, α2, α3, α7, β1 and β2) and the three APs; test: Two-electrode voltage-clamp, oocytes co-injected with all six nAChR subunits and three ancillary proteins; assay type: cell-based, Lepeophtheirus salmonis; details: equimolar co-injection
Excerpt: (§1) To determine the subunit composition of the functional L. salmonis nAChR channel, we tried different possible combinations of the six nAChR subunit (α1, α2, α3, α7, β1 and β2) cRNAs along with the cRNAs from the three AP, injected into X. laevis oocytes, which is one of the most commonly used systems for functional expression of nAChRs. Three to five days after injection, the presence of a functional nAChR was investigated by the two-electrode voltage-clamp method. To determine the relative contribution of each gene for the functional expression of nAChR, we removed cRNAs from the injection mixture, either singularly or in combination (Fig 2). […]
(§2) Oocytes were impaled with two electrodes filled with 3 M KCl, and their membrane potentials were maintained at -80 mV throughout the experiment. Currents evoked by ACh or drugs were recorded using an automated process equipped with standard two-electrode voltage-clamp configuration (HiClamp, MultiChannel Systems). […] Data were captured at 100 Hz, filtered at 10 Hz, and analyzed using proprietary data acquisition and analysis software running under Matlab (Mathworks Inc., Natick, MA, USA). […] Plots of the peak inward currents as a function of the logarithm of the agonist concentration yield classical concentration-activation curves were readily fitted by single Hill equations. […]

Lsa-nAChR2 (α3β1β2) [3] = target: T1, Lsa-nAChR2 (α3β1β2) (Lepeophtheirus salmonis, UniProt A0A7S5PZ03+A0A7S5PZ05+A0A7S5Q7H3); test: cell-based; assay type: cell-based
Experimental: (§3) Capped cRNAs were synthesized (T7 mMessage mMachine kit, Ambion, Austin, TX, USA) from the linearized vectors containing the different subunits according to the manufacturer’s protocol. cRNA samples were stored at -80°C until use. Oocytes were ordered from Ecocyte (Germany). Oocytes were microinjected using a Roboinject automatic injection system (Multi Channel Systems, Reutlingen, Germany) with 15–25 nl of cRNA solution (30–300 ng/μl per subunit) and then incubated at 18°C in sterile filtered Barth solution containing: NaCl (88 mM), KCl (1 mM), NaHCO3 (2.4 mM), HEPES (10 mM, pH 7.5), MgSO4·7H2O (0.82 mM), Ca(NO3)2·4H2O (0.33 mM), CaCl2·6H2O (0.41 mM), at pH 7.4, and supplemented with 20 μg/ml of kanamycin, 100 U/ml benzylpenicillin and 100 μg/ml streptomycin. Recordings were made 3–5 days post-cRNA injection.
(§4) Oocytes were impaled with two electrodes filled with 3 M KCl, and their membrane potentials were maintained at -80 mV throughout the experiment. Currents evoked by ACh or drugs were recorded using an automated process equipped with standard two-electrode voltage-clamp configuration (HiClamp, MultiChannel Systems). The principle of this system differs from standard electrophysiology because, instead of applying the compound in the perfusion, the oocyte is moved into a well from a 96-well microtiter plate containing the desired solution. Data were captured at 100 Hz, filtered at 10 Hz, and analyzed using proprietary data acquisition and analysis software running under Matlab (Mathworks Inc., Natick, MA, USA). Additional analyses were performed in Excel (Microsoft, Redmond, WA, USA). […] Concentration-activation curves were fitted with the equation: Y=100/1+10^H(logEC50−X) (1) where Y is the normalized response, logEC50 is the logarithm of the concentration of agonist eliciting half-maximal current amplitude, X is the log of dose or concentration, and H is the slope factor or Hill slope. Individual curves were standardized to the initial ACh (100 μM) application amplitude and subsequently averaged. EC50 values were determined from the mean of at least 3 or more cells.
(§5) Dose-response curves were obtained by sequential applications for 10s of increasing concentrations of ACh or drugs to oocytes expressing Lsa-nAChR1 or Lsa-nAChR2. A total time of 90 s time was allowed between applications for the channel to recover from any desensitization. To test the antagonistic effect of DHbE (Fig 5) and for the screening protocol (Fig 6), cells that evoked a significant current with ACh were exposed to the test compounds at 10 μM respectively 1 μM using a pre-application of 45 s and co-application of 10 s with ACh (1 μM).

Lsa-nAChR1 (α1α2β1β2) [4] = target: T2, Lsa-nAChR1 (α1α2β1β2) (Lepeophtheirus salmonis, UniProt A0A7S5PZ05+A0A7S5Q3W4+A0A7S5Q7H3+A0A7S5U9A3); test: cell-based; assay type: cell-based
T2 sequence (A0A7S5PZ05 entry or part of it): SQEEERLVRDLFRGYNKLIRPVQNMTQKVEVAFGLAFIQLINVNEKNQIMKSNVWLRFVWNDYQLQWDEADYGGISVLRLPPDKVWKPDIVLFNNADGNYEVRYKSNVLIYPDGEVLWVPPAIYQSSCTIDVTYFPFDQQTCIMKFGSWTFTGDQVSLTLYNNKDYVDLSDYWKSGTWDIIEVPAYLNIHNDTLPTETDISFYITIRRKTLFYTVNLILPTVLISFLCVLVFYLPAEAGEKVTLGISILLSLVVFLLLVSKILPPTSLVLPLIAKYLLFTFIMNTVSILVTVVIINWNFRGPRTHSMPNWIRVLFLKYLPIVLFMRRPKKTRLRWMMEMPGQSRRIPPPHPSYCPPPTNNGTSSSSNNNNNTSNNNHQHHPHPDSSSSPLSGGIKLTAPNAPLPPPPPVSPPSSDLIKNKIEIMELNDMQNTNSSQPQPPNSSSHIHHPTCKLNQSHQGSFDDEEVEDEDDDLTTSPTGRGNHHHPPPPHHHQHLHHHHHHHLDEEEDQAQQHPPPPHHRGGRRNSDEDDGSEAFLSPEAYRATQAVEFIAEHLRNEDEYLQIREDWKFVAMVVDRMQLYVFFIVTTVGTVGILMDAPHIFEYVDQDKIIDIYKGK
T2 sequence (A0A7S5Q3W4 entry or part of it): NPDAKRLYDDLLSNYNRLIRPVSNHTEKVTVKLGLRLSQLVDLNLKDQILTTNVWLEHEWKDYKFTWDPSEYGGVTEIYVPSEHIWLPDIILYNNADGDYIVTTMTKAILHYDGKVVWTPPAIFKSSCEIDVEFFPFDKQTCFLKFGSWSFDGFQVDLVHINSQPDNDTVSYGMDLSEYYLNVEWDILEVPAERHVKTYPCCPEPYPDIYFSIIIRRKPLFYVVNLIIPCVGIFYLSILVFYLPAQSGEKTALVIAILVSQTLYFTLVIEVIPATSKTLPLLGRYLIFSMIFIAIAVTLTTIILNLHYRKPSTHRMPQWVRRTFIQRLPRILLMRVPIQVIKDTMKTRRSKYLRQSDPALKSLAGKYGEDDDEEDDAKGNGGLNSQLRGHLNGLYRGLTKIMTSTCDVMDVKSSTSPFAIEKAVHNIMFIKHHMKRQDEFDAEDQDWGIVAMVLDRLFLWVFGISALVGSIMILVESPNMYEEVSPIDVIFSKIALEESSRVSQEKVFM
T2 sequence (A0A7S5U9A3 entry or part of it): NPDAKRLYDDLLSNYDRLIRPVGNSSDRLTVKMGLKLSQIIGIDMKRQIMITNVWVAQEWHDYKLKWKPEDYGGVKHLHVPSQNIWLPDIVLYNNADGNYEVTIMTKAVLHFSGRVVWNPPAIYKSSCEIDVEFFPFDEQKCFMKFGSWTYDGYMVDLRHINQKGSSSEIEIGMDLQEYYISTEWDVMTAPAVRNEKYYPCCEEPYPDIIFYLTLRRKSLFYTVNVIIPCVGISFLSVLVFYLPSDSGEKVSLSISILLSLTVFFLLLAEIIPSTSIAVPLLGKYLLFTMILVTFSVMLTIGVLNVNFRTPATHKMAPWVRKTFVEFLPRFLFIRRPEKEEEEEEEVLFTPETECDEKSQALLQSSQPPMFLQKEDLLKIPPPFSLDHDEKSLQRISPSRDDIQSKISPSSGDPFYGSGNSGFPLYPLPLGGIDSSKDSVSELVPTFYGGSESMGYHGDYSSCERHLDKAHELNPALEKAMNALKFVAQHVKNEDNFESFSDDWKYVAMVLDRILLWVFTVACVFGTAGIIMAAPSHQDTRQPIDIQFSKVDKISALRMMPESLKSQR
T2 sequence (A0A7S5Q7H3 entry or part of it): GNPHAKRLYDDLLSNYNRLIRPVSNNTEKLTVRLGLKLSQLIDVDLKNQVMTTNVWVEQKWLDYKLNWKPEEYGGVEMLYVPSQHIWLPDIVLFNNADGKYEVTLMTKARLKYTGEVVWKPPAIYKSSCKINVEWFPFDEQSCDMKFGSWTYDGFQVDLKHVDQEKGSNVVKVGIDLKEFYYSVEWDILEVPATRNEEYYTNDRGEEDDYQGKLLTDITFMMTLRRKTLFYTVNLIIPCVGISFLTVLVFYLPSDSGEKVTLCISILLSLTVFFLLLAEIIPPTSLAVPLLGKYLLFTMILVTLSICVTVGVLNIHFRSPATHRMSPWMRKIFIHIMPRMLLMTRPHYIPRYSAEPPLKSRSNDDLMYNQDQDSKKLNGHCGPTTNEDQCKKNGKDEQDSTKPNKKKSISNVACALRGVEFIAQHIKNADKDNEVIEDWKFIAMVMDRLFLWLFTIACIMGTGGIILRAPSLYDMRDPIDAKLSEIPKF
Experimental: as §3, §4, §5

[5] = test system: Lsa-nAChR-α1 and Lsa-nAChR-α2 with Lsa-nAChR-β1 and APs (Lsa-nAChR-β2 removed); test: Two-electrode voltage-clamp, oocytes with Lsa-nAChR-α1, -α2, -β1 and APs (Lsa-nAChR-β2 removed); assay type: cell-based, Lepeophtheirus salmonis; details: Lsa-nAChR-β2 removed from injection mix
Excerpt: as §1, §2

Lsa-nAChR1 (α1α2β1β2) [6] = target: T2, Lsa-nAChR1 (α1α2β1β2); assay type: cell-based; details: co-applied at 10 μM, both ratios (10:1 and 1:10)
Lsa-nAChR2 (α3β1β2) [7] = target: T1, Lsa-nAChR2 (α3β1β2); assay type: cell-based; details: co-applied at 10 μM, both ratios (10:1 and 1:10)
[8] = oocytes exposed to acetylcholine

| Structure (SMILES) | maximum response to acetylcholine [1] | current (median) with 100 μM ACh [2] | type of effect on the receptor (agonist / partial-agonist / super-agonist / no effect) (Lsa-nAChR2 (α3β1β2) [3]; dose-response, 1:1 (α:β) ratio) | Max peak (% Ach) (Lsa-nAChR2 (α3β1β2) [3]; maximal peak current compared to ACh 100 μM, 1:1 (α:β) ratio) | averaged maximum response (Lsa-nAChR2 (α3β1β2) [3]; [8]) | Mean Hill Slope ± SD (Lsa-nAChR2 (α3β1β2) [3]; ratio α/β 1:10) | Mean max current (μA) (Lsa-nAChR2 (α3β1β2) [3]; ratio α/β 1:10) | Mean Hill Slope ± SD (Lsa-nAChR2 (α3β1β2) [3]; ratio α/β 10:1) | Mean max current (μA) (Lsa-nAChR2 (α3β1β2) [3]; ratio α/β 10:1) | current (median) with 100 μM ACh (Lsa-nAChR1 (α1α2β1β2) [4]; Lsa-nAChR-α1 and -α2 with both β subunits and APs) | type of effect on the receptor (agonist / partial-agonist / no effect) (Lsa-nAChR1 (α1α2β1β2) [4]; dose-response, 1:1 (α:β) ratio) | averaged maximum response (Lsa-nAChR1 (α1α2β1β2) [4]; [8]) | Mean Hill Slope ± SD (Lsa-nAChR1 (α1α2β1β2) [4]; ratio α/β 1:10) | Mean max current (μA) (Lsa-nAChR1 (α1α2β1β2) [4]; ratio α/β 1:10) | Mean Hill Slope ± SD (Lsa-nAChR1 (α1α2β1β2) [4]; ratio α/β 10:1) | Mean max current (μA) (Lsa-nAChR1 (α1α2β1β2) [4]; ratio α/β 10:1) | Emax (Lsa-nAChR1 (α1α2β1β2) [4]; read-out: Max peak (% Ach)) | current (median) with 100 μM ACh [5] | inhibition of the ACh-triggered (10 μM) response (Lsa-nAChR1 (α1α2β1β2) [6]) | inhibition of the ACh-triggered (10 μM) response (Lsa-nAChR2 (α3β1β2) [7]) |
| --- | --- | --- | --- | --- | --- | --- | --- | --- | --- | --- | --- | --- | --- | --- | --- | --- | --- | --- | --- | --- |
| CC(=O)OCC[N+](C)(C)C [Acetylcholine] | 0.24 μA | 17.00 μA | agonist | 100% | > 5 μA | 1.25 ± 0.23 | 3.17 μA | 1.30 ± 0.22 | 2.52 μA | 4.50 μA | agonist | > 5 μA | 1.44 ± 0.52 | 8.35 μA | 1.46 ± 0.37 | 4.85 μA | 100% | 0.17 μA | – | – |
| CO[C@H]1CC=C2CCN3CCC4=C(CC(=O)OC4)[C@]23C1 [DHbE, Dihydro-β-erythroidine] | – | – | – | – | – | – | – | – | – | – | – | – | – | – | – | – | – | – | completely inhibit | completely inhibit |
